This passage reports IC50 results from ChEMBL document CHEMBL5096221, “Discovery of a Highly Potent and Orally Bioavailable STAT3 Dual Phosphorylation Inhibitor for Pancreatic Cancer Treatment” (J Med Chem, 2022).

Bounds are passed on as bounds.

In test [1] the target is Signal transducer and activator of transcription 3 (Homo sapiens, UniProt P40763). Briefly: Inhibition of STAT3 in human HEK293T cells assessed as inhibition of IL-6 stimulated STAT3 phosphorylation by dual-luciferase reporter assay. In kind it is cell-based.
Test [2] can be described thus: Inhibition of ATP production in human BXPC-3 cells incubated for 20 to 24 hrs by ATP assay kit method. In kind it is functional, cell-based.
A further test relates to BXPC-3. Kind of test: Anti-proliferative activity against human BXPC-3 cells assessed as cell growth inhibition incubated for 72 hrs by MTS assay. It counts as functional, cell-based. As to conditions: BXPC-3, 72 h.
Another test concerns Capan-2. Briefly: Anti-proliferative activity against human Capan-2 cells assessed as cell growth inhibition incubated for 72 hrs by MTS assay. As to conditions: Capan-2, 72 h. In kind it is functional, cell-based.

Signal transducer and activator of transcription 3, sequence (P40763 whole entry): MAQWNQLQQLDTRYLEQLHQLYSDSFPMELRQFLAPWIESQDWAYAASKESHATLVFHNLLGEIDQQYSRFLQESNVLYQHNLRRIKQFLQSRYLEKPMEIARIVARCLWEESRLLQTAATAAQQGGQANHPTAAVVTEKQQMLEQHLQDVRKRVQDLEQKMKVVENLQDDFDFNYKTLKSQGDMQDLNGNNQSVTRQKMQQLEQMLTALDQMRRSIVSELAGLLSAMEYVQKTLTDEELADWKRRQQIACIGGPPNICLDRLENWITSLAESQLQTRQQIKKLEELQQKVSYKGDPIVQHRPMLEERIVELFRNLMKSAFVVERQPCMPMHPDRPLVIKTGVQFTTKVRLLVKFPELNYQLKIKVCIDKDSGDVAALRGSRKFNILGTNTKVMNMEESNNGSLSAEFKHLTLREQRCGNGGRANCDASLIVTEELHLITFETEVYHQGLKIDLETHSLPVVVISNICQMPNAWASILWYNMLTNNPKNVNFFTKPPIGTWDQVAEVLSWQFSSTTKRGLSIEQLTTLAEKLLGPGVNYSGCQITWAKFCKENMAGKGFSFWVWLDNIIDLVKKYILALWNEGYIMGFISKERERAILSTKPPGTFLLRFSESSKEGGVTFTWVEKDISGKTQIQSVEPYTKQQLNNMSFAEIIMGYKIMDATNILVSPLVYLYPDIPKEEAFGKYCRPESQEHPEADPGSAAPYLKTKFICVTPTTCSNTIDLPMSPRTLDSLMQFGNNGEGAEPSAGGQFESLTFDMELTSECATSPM

Turning to `Cn1c(C(=O)N2CCN(Cc3ccc(OCC(F)(F)F)cc3)CC2)cc2ccc(Oc3cnc(-c4nc(-c5ccc(Br)cc5)no4)cn3)cc21`, the 50% inhibitory concentration (IC50) in test [1] was determined as 28.1 nM; in test [2] it was 14.3 nM; in the test with BXPC-3, 2.7 nM; with Capan-2, 9.3 nM.
For `Cn1c(C(=O)N2CCN(Cc3ccc(OCC(F)(F)F)cc3)CC2)cc2ccc(Oc3cnc(-c4nc(-c5ccc(OC(F)(F)F)cc5)no4)cn3)cc21`, in that order: 39.2 nM, 10.5 nM, 11.4 nM and 6.4 nM.
The like results for `Cn1c(C(=O)N2CCN(Cc3ccc(OCC(F)(F)F)cc3)CC2)cc2ccc(Oc3cnc(-c4nc(-c5cccc(F)c5)no4)cn3)cc21` were, in that order, 38.3 nM, 19.9 nM, 1.9 nM and 5 nM.
As to `Cn1c(C(=O)N2CCN(Cc3ccc(OCC(F)(F)F)cc3)CC2)cc2ccc(Oc3cnc(-c4nc(-c5ccccc5F)no4)cn3)cc21`, the IC50 in test [1] was 13.1 nM; in test [2], 16.5 nM; in the test on BXPC-3 it was 1.7 nM; with Capan-2, 7.7 nM.
In the case of `O=C(c1cc2ccc(Oc3cnc(-c4nc(-c5ccc(C(F)(F)F)cc5)no4)cn3)cc2[nH]1)N1CCN(Cc2ccc(OCC(F)(F)F)cc2)CC1`, the IC50 in test [1] came out at 30.5 nM; in test [2] it was 25 nM.
As for `Cn1c(C(=O)N2CCN(Cc3ccc(C(F)(F)F)cc3)CC2)cc2ccc(Oc3cnc(-c4nc(-c5ccc(C(F)(F)F)cc5)no4)cn3)cc21`, the concentration for half-maximal inhibition (IC50) in test [1] came out at 72.4 nM; in test [2] it was 102 nM.
In the case of `Cn1c(C(=O)N2CCN(Cc3cccc(C(F)(F)F)c3)CC2)cc2ccc(Oc3cnc(-c4nc(-c5ccc(C(F)(F)F)cc5)no4)cn3)cc21`, the 50% inhibitory concentration (IC50) in test [1] was > 1000 nM.
Still for that read-out and setting: the same measure for `C=CCn1c(C(=O)N2CCN(Cc3ccc(OCC(F)(F)F)cc3)CC2)cc2ccc(Oc3cnc(-c4nc(-c5ccc(C(F)(F)F)cc5)no4)cn3)cc21`: > 1000 nM.
Take `COCCn1c(C(=O)N2CCN(Cc3ccc(OCC(F)(F)F)cc3)CC2)cc2ccc(Oc3cnc(-c4nc(-c5ccc(C(F)(F)F)cc5)no4)cn3)cc21`: the results for the half-maximal inhibitory concentration (IC50) in test [1] and in test [2] were 39.9 nM and 93.2 nM, respectively.
